Patent publication US4623662A, “Antiatherosclerotic ureas and thioureas” (American Cyanamid Company, priority 1985, dated 1986)

The molecules below were run against T1, fatty acyl CoA: cholesterol acyl transferase (ACAT) (Rattus norvegicus, UniProt O70536) (assay: Inhibition of fatty acyl CoA:cholesterol acyl transferase (ACAT), rat adrenal enzyme). Settings: not given.
T1 construct: The supernatant, containing the microsomal fraction, served as the source of the cholesterol-esterifying enzyme; from tissue; host or cells: rat adrenals, supernatant of 1,000 x g centrifugation containing the microsomal fraction
T1 sequence (O70536 1-545): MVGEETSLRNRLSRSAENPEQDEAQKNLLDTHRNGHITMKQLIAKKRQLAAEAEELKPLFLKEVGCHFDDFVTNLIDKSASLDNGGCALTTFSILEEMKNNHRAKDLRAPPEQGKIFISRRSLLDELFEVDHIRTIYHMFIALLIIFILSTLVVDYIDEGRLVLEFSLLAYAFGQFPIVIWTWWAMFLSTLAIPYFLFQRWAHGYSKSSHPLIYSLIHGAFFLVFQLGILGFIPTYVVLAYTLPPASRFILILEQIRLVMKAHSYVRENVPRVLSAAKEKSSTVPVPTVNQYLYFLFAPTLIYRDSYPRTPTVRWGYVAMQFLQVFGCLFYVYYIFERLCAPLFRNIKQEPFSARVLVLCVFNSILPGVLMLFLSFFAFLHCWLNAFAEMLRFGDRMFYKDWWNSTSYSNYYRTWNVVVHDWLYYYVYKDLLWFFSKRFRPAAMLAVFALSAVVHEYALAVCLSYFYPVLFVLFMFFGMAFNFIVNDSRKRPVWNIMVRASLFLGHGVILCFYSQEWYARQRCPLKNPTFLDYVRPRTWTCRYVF
Type: biochemical
Method in brief: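 Enzyme source was the microsomal supernatant of rat adrenal homogenate (0.2M potassium phosphate, pH 7.4) with BSA, preincubated with compound (5.2 μg/ml final for single-point) for 10 min at 37° C. Then [14C]oleoyl CoA added, 10 min at 37° C. TLC-separated cholesteryl ester was counted; percent inhibition versus control, IC50 from several concentrations.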
In the case of `CC(C)(C)CCN(Cc1cccs1)C(=O)Nc1c(Cl)cc(Cl)cc1Cl` [1-(3,3-Dimethylbutyl)-1-(2-thienylmethyl)-3-(2,4,6-trichlorophenyl)urea], the inhibition at 5.2 µg/mL is reported as 90%.
`CC(C)(C)CCN(Cc1ccccc1)C(=O)Nc1ccc(F)cc1F` [1-(3,3-Dimethylbutyl)-1-benzyl-3-(2,4-difluorophenyl)urea] showed an inhibition at 5.2 µg/mL of 90%.
`CCCCCCCN(Cc1ccc(CCCC)cc1)C(=O)Nc1ccc(F)cc1F` [1-[(4-Butylphenyl)methyl]-1-(n-heptyl)-3-[2,4-difluorophenyl]urea] was tested, and the inhibition at 5.2 µg/mL was 90%.
`CCCCc1ccc(CN(CCCCC(C)(C)C)C(=O)Nc2c(Cl)cc(Cl)cc2Cl)cc1` [1-(5,5-Dimethylhexyl)-1-[4-(n-butyl)benzyl]-3-(2,4,6-trichlorophenyl)urea] gave an inhibition at 5.2 µg/mL of 90%.
Work on `Cc1cc(C)c(NC(=O)N(Cc2ccccc2)C(Cc2ccccc2)c2ccc(OCc3ccccc3)cc2)c(C)c1` (stereo not drawn) [1-Benzyl-1-[2-phenyl-1-(4-benzyloxyphenyl)ethyl]-3-(2,4,6-trimethylphenyl)urea] yielded an inhibition at 5.2 µg/mL of 90%.
`CCCCc1ccc(CN(CCCCCCCl)C(=O)Nc2ccc(Cl)cc2C)cc1` [1-[(4-Butylphenyl)methyl]-1-(6-chlorohexyl)-3-(4-chloro-2-methylphenyl)urea] showed an inhibition at 5.2 µg/mL of 90%.
`Cc1cc(NC(=O)N(CCC(C)(C)C)Cc2ccccc2)c(C)cc1Cl` [1-(3,3-Dimethylbutyl)-1-(benzyl)-3-(4-chloro-2,5-dimethylphenyl)urea] gave an inhibition at 5.2 µg/mL of 90%.
`CCCCc1ccc(CN(CCC(C)(C)C)C(=O)Nc2ccc(F)cc2F)cc1` [1-(3,3-Dimethylbutyl)-1-[4-(n-butyl)benzyl]-3-(2,4-difluorophenyl)urea] gave an inhibition at 5.2 µg/mL of 90%.
For `CCCCCCCOc1ccc(CN(CCCC)C(=O)Nc2c(C)cc(C)cc2C)cc1` [1-(n-Butyl)-1-(4-heptyloxybenzyl)-3-(2,4,6-trimethylphenyl)urea], the inhibition at 5.2 µg/mL was 97.3%.

Same assay, conditions: rat adrenal ACAT; final concentration 5.2 μg/ml; read-out: % Inhibition
`CCCCCCCN(Cc1ccc(OCCCC)cc1)C(=O)Nc1cccc(C(F)(F)F)c1` [1-(n-Heptyl)-1-(4-n-butoxybenzyl)-3-(3-trifluoromethylphenyl)urea] showed an inhibition at 5.2 µg/mL of 82.4%.
Work on `CCCCCCCN(Cc1ccc(CCCC)cc1)C(=O)Nc1ccc(Cl)cc1Cl` [1-(n-Heptyl)-1-(4-n-butylbenzyl)-3-(2,4-dichlorophenyl)urea] yielded an inhibition at 5.2 µg/mL of 80%.
For `CCCCCCCN(Cc1ccc(OCCCC)cc1)C(=O)Nc1ccc(F)cc1F` [1-(n-Heptyl)-1-(4-n-butoxybenzyl)-3-(2,4-difluorophenyl)urea], the inhibition at 5.2 µg/mL was 82.7%.
In the case of `CCCCc1ccc(CN(Cc2ccccc2)C(=O)Nc2ccc(C)cc2C)cc1` [1-Benzyl-1-(4-n-butylbenzyl)-3-(2,4-dimethylphenyl)urea], the inhibition at 5.2 µg/mL is reported as 91.9%.
`CCCCN(Cc1ccccc1)C(=O)Nc1c(C)cccc1C` [1-Benzyl-1-( -n-butyl)-3-(2,6-dimethylphenyl)urea] was tested, and the inhibition at 5.2 µg/mL was 83.1%.
For `Cc1ccc(NC(=O)N(Cc2ccccc2)C(Cc2ccccc2)c2ccccc2)c(C)c1` (stereo not drawn) [1-Benzyl-1-(1,2-diphenylethyl)-3-(2,4-dimethylphenyl)urea], the inhibition at 5.2 µg/mL was 95%.

What follows are molecules tested on cholesterol absorption (assay: Inhibition of cholesterol absorption in rats fed 1% cholesterol:0.5% cholic acid diet). Settings: po, 336 h; rat; dose .03% of the diet, 2 weeks; read-out: LS (liver sterol), percentage of control values.
Type: in vivo, male Sprague-Dawley rats
Method in brief: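 Male Sprague-Dawley rats (150-170 g) fed 1% cholesterol:0.5% cholic acid diet for 2 weeks with compound at 0.001, 0.003, 0.01 or 0.03% of diet. Serum cholesterol measured enzymatically; liver cholesterol from saponified large-lobe sample after petroleum ether extraction. Liver and serum sterol expressed as percent of untreated controls.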
In the case of `CCCCCCCN(Cc1ccc(OCCCC)cc1)C(=O)Nc1cccc(C(F)(F)F)c1` [1-(n-Heptyl)-1-(4-n-butoxybenzyl)-3-(3-trifluoromethylphenyl)urea], the response vs control in vivo at 0.03 % is reported as 86%.
In the case of `CCCCCCCN(Cc1ccc(CCCC)cc1)C(=O)Nc1ccc(Cl)cc1Cl` [1-(n-Heptyl)-1-(4-n-butylbenzyl)-3-(2,4-dichlorophenyl)urea], the response vs control in vivo at 0.03 % is reported as 50%.
Work on `CC(C)(C)CCN(Cc1cccs1)C(=O)Nc1c(Cl)cc(Cl)cc1Cl` [1-(3,3-Dimethylbutyl)-1-(2-thienylmethyl)-3-(2,4,6-trichlorophenyl)urea] yielded a response vs control in vivo at 0.03 % of 56%.
With `CC(C)(C)CCN(Cc1ccccc1)C(=O)Nc1ccc(F)cc1F` [1-(3,3-Dimethylbutyl)-1-benzyl-3-(2,4-difluorophenyl)urea] the response vs control in vivo at 0.03 % was 70%.
`CCCCCCCN(Cc1ccc(OCCCC)cc1)C(=O)Nc1ccc(F)cc1F` [1-(n-Heptyl)-1-(4-n-butoxybenzyl)-3-(2,4-difluorophenyl)urea] was tested, and the response vs control in vivo at 0.03 % was 25%.
For `CCCCc1ccc(CN(Cc2ccccc2)C(=O)Nc2ccc(C)cc2C)cc1` [1-Benzyl-1-(4-n-butylbenzyl)-3-(2,4-dimethylphenyl)urea], the response vs control in vivo at 0.03 % was 20%.
Molecule `CCCCN(Cc1ccccc1)C(=O)Nc1c(C)cccc1C` [1-Benzyl-1-( -n-butyl)-3-(2,6-dimethylphenyl)urea] has a response vs control in vivo at 0.03 % of 91%.
`Cc1ccc(NC(=O)N(Cc2ccccc2)C(Cc2ccccc2)c2ccccc2)c(C)c1` (stereo not drawn) [1-Benzyl-1-(1,2-diphenylethyl)-3-(2,4-dimethylphenyl)urea] gave a response vs control in vivo at 0.03 % of 63%.
With `CCCCCCCN(Cc1ccc(CCCC)cc1)C(=O)Nc1ccc(F)cc1F` [1-[(4-Butylphenyl)methyl]-1-(n-heptyl)-3-[2,4-difluorophenyl]urea] the response vs control in vivo at 0.03 % was 19%.
In the case of `CCCCc1ccc(CN(CCCCC(C)(C)C)C(=O)Nc2c(Cl)cc(Cl)cc2Cl)cc1` [1-(5,5-Dimethylhexyl)-1-[4-(n-butyl)benzyl]-3-(2,4,6-trichlorophenyl)urea], the response vs control in vivo at 0.03 % is reported as 32%.
With `Cc1cc(C)c(NC(=O)N(Cc2ccccc2)C(Cc2ccccc2)c2ccc(OCc3ccccc3)cc2)c(C)c1` (stereo not drawn) [1-Benzyl-1-[2-phenyl-1-(4-benzyloxyphenyl)ethyl]-3-(2,4,6-trimethylphenyl)urea] the response vs control in vivo at 0.03 % was 49%.
For `CCCCc1ccc(CN(CCCCCCCl)C(=O)Nc2ccc(Cl)cc2C)cc1` [1-[(4-Butylphenyl)methyl]-1-(6-chlorohexyl)-3-(4-chloro-2-methylphenyl)urea], the response vs control in vivo at 0.03 % was 35%.
`Cc1cc(NC(=O)N(CCC(C)(C)C)Cc2ccccc2)c(C)cc1Cl` [1-(3,3-Dimethylbutyl)-1-(benzyl)-3-(4-chloro-2,5-dimethylphenyl)urea] gave a response vs control in vivo at 0.03 % of 30%.
`CCCCc1ccc(CN(CCC(C)(C)C)C(=O)Nc2ccc(F)cc2F)cc1` [1-(3,3-Dimethylbutyl)-1-[4-(n-butyl)benzyl]-3-(2,4-difluorophenyl)urea] gave a response vs control in vivo at 0.03 % of 30%.
Molecule `CCCCCCCOc1ccc(CN(CCCC)C(=O)Nc2c(C)cc(C)cc2C)cc1` [1-(n-Butyl)-1-(4-heptyloxybenzyl)-3-(2,4,6-trimethylphenyl)urea] has a response vs control in vivo at 0.03 % of 31%.

Same assay, conditions: po, 336 h; rat; dose .03% of the diet, 2 weeks; read-out: SS (serum sterol), percentage of control values
For `CCCCCCCN(Cc1ccc(OCCCC)cc1)C(=O)Nc1cccc(C(F)(F)F)c1` [1-(n-Heptyl)-1-(4-n-butoxybenzyl)-3-(3-trifluoromethylphenyl)urea], the response vs control in vivo at 0.03 % was 80%.
With `CCCCCCCN(Cc1ccc(CCCC)cc1)C(=O)Nc1ccc(Cl)cc1Cl` [1-(n-Heptyl)-1-(4-n-butylbenzyl)-3-(2,4-dichlorophenyl)urea] the response vs control in vivo at 0.03 % was 58%.
In the case of `CC(C)(C)CCN(Cc1cccs1)C(=O)Nc1c(Cl)cc(Cl)cc1Cl` [1-(3,3-Dimethylbutyl)-1-(2-thienylmethyl)-3-(2,4,6-trichlorophenyl)urea], the response vs control in vivo at 0.03 % is reported as 58%.
`CC(C)(C)CCN(Cc1ccccc1)C(=O)Nc1ccc(F)cc1F` [1-(3,3-Dimethylbutyl)-1-benzyl-3-(2,4-difluorophenyl)urea] gave a response vs control in vivo at 0.03 % of 71%.
In the case of `CCCCCCCN(Cc1ccc(OCCCC)cc1)C(=O)Nc1ccc(F)cc1F` [1-(n-Heptyl)-1-(4-n-butoxybenzyl)-3-(2,4-difluorophenyl)urea], the response vs control in vivo at 0.03 % is reported as 63%.
`CCCCc1ccc(CN(Cc2ccccc2)C(=O)Nc2ccc(C)cc2C)cc1` [1-Benzyl-1-(4-n-butylbenzyl)-3-(2,4-dimethylphenyl)urea] showed a response vs control in vivo at 0.03 % of 41%.
With `CCCCN(Cc1ccccc1)C(=O)Nc1c(C)cccc1C` [1-Benzyl-1-( -n-butyl)-3-(2,6-dimethylphenyl)urea] the response vs control in vivo at 0.03 % was 68%.
With `Cc1ccc(NC(=O)N(Cc2ccccc2)C(Cc2ccccc2)c2ccccc2)c(C)c1` (stereo not drawn) [1-Benzyl-1-(1,2-diphenylethyl)-3-(2,4-dimethylphenyl)urea] the response vs control in vivo at 0.03 % was 52%.
With `CCCCCCCN(Cc1ccc(CCCC)cc1)C(=O)Nc1ccc(F)cc1F` [1-[(4-Butylphenyl)methyl]-1-(n-heptyl)-3-[2,4-difluorophenyl]urea] the response vs control in vivo at 0.03 % was 35%.
With `CCCCc1ccc(CN(CCCCC(C)(C)C)C(=O)Nc2c(Cl)cc(Cl)cc2Cl)cc1` [1-(5,5-Dimethylhexyl)-1-[4-(n-butyl)benzyl]-3-(2,4,6-trichlorophenyl)urea] the response vs control in vivo at 0.03 % was 45%.
Work on `Cc1cc(C)c(NC(=O)N(Cc2ccccc2)C(Cc2ccccc2)c2ccc(OCc3ccccc3)cc2)c(C)c1` (stereo not drawn) [1-Benzyl-1-[2-phenyl-1-(4-benzyloxyphenyl)ethyl]-3-(2,4,6-trimethylphenyl)urea] yielded a response vs control in vivo at 0.03 % of 60%.
Molecule `CCCCc1ccc(CN(CCCCCCCl)C(=O)Nc2ccc(Cl)cc2C)cc1` [1-[(4-Butylphenyl)methyl]-1-(6-chlorohexyl)-3-(4-chloro-2-methylphenyl)urea] has a response vs control in vivo at 0.03 % of 46%.
In the case of `Cc1cc(NC(=O)N(CCC(C)(C)C)Cc2ccccc2)c(C)cc1Cl` [1-(3,3-Dimethylbutyl)-1-(benzyl)-3-(4-chloro-2,5-dimethylphenyl)urea], the response vs control in vivo at 0.03 % is reported as 55%.
Molecule `CCCCc1ccc(CN(CCC(C)(C)C)C(=O)Nc2ccc(F)cc2F)cc1` [1-(3,3-Dimethylbutyl)-1-[4-(n-butyl)benzyl]-3-(2,4-difluorophenyl)urea] has a response vs control in vivo at 0.03 % of 39%.
For `CCCCCCCOc1ccc(CN(CCCC)C(=O)Nc2c(C)cc(C)cc2C)cc1` [1-(n-Butyl)-1-(4-heptyloxybenzyl)-3-(2,4,6-trimethylphenyl)urea], the response vs control in vivo at 0.03 % was 66%.
